Laboratory results: publication PMC12597941 (Frontiers in Pharmacology, 2025)

Columns and labels:
[1] = Untargeted LC-HRMS metabolite profiling after oral PAC administration
Experimental: Animals to be sacrificed at 6 h (only test item-treated animals) were placed in metabolic cages (650-0100, Nalgene) for the collection of urine. Urine was stabilized with a final concentration of 4 mM NaN3 and stored at 4 °C. At 1 h and 6 h after the administration of the vehicle (1 h only) or test items (1 and 6 h), animals from the respective treatment groups were euthanized by CO2 inhalation. Blood was obtained by cardiac puncture and drawn in lithium-heparin-containing vials for the preparation of plasma by centrifugation (4,000 rpm, 4 °C, 10 min). Plasma was stored at −80 °C until bioanalytical analysis. Samples of the mixed intestinal content were obtained by scraping the small intestine, cecum, and large intestine into a 5-mL tube. Tubes were covered with gaseous N2 and stored at −80 °C.
The supernatant was evaporated to dryness and resuspended in 150 µL 1% FA in H2O/ACN (9/1, v/v) for analysis.
Rat intestinal content was first freeze-dried and finely crushed. […] Ethyl acetate extracts were evaporated to dryness and then resuspended in 300 µL 1% FA in H2O/ACN (9/1, v/v) for untargeted LC-HRMS analysis. Internal standards (listed in Supplementary Table S1) were spiked to both the sample types to ensure the performance of the measurements and monitor matrix effect.
Untargeted metabolite profiling was performed using a Vanquish UHPLC coupled with an Orbitrap Fusion Tribrid mass spectrometer (Thermo Fisher Scientific, Waltham, MA, United States of America) fitted with a HESI source. Chromatographic separation was performed on Waters Acquity HSS T3 1.8 µm Column (2.1 mm × 150 mm) (Waters Technologies, United States of America). The injection volume was 5 µL. The flow rate was set at 0.45 mL/min, and the column temperature was 40 °C. […] The gradient was as follows: 0% B from 0 to 2 min, 0%–10% B from 2 to 10 min, 10%–80% B from 10 to 25 min, 80%–100% B from 25 to 26 min, 100% B from 26 to 31 min, 100%–0% B from 31 to 32 min, and 3 min equilibration at 0% B.
Compound discoverer 3.1 (CD, Thermo Fisher Scientific, Waltham, MA, United States of America) was used for untargeted and novel feature detection. Raw files were processed with CD in the following steps: first, spectra were selected from raw data followed by retention time (RT) alignment with RT tolerance of 2 min and 5 ppm mass precision. Then, unknown compounds were detected and grouped with RT tolerance of 0.5 min and 5 ppm mass deviation. Missing values were filled. The composition was predicted based on the exact mass. The compounds were annotated with different types of databases. mzCloud was used to annotate compounds on the MS/MS level with a mass tolerance of 10 ppm. ChemSpider was used to annotate features based on the exact mass with a mass tolerance of 20 ppm.
Relevant features were identified by performing differential analysis between the vehicle and PAC treatment groups in Compound Discoverer software. […] Compound annotations of these features were checked for plausibility, and, if necessary, structural elucidation was manually continued.

[2] = system: scopolamine-induced working memory impairment; experiment: T-maze spontaneous alternation, scopolamine-induced memory impairment; format: in vivo; details: mice, p.o. 1 h before T-maze; donepezil 0.3 mg/kg
Experimental: To impair short-term memory, mice were injected intraperitoneally (i.p.) with 1 mg/kg scopolamine (S1875, Sigma-Aldrich) or 0.9% NaCl (PZN01399062, Fresenius) 20 min prior to the experimental session. […] Switching from the right to the left arm of the T-maze or vice versa was calculated as correct alternations (%). The method is based on the study by [Deacon (2006)]. At 15 min after the start of the T-maze observation and once the 20 arm entry trials were finalized, animals were euthanized with CO2, and blood was collected by cardiac puncture for EDTA-plasma (Figure 1).
Data were analyzed using GraphPad Prism 10.1.2 (GraphPad Software, La Jolla, CA). Experimental groups were compared using one-way analysis of variance (ANOVA) or two-way ANOVA, followed by Dunnett’s post-test. Vehicle and each active treatment group were compared to the vehicle–scopolamine group (that received vehicle p.o., followed by i.p. injection of scopolamine). For calculation of dose–response curves, reversal of the scopolamine-induced amnesia was calculated. […] For ROS data, baseline ROS levels without treatment were set as 0% inhibition. […] Emax, and relative ID50 values for the T-maze in vivo studies were taken directly from the calculated dose–response curve data provided by Graph Pad Prism. […]

[3] = Plasma levels of terpene lactones, flavonol aglycones and PAC metabolites in T-maze mice; format: in vivo
Experimental: Targeted LC-MS/MS was used to quantify known and newly identified PAC metabolites (MRM transitions based on MS2 spectra of the untargeted analysis), as well as main ginkgo terpene lactones and flavonol aglycones in one single run in mouse plasma obtained from the pharmacological experiments (Supplementary Table S1).
The injection volume was 10 µL. […] Data processing was carried out with MassHunter Quantitative Analysis 10.1 software.
Plasma levels of terpene lactones (ginkgolide A, ginkgolide B, and bilobalide) and main ginkgo flavonol aglycones (quercetin, kaempferol, and isorhamnetin) were quantified in samples from animals used in the T-maze model. The detailed protocols for the analysis methods are included in the Supplementary Material.
Quantification of Acetylcholine in plasma […]
as described in the manufacturer’s instructions. […]
for 30 min at room temperature. […]
subtracted and of ACh concentration was calculated.
Flavonol aglycone quantification in plasma […]
methanol. […]
Data processing was conducted with mass hunter quantitative analysis 10.1.
Terpene lactone quantification in plasma […]
An Agilent 7890B GC (Agilent, Santa Clara, CA) coupled to an Agilent 7000D triple-quadrupole MS (Agilent, Santa Clara, CA) was used to analyze all samples. […] Target analytes were analyzed in negative ion chemical ionization with multiple reaction monitoring (MRM) mode using […]

[4] = after oral PACs, c = detected in mice plasma

Compound	Time points at which the metabolite was detected ([1]; after oral PACs) [h]	Compartment in which the metabolite was detected [1, 4]	also measured
O=C(O[C@@H]1Cc2c(O)cc(O)cc2O[C@@H]1c1cc(O)c(O)c(O)c1)c1cc(O)c(O)c(O)c1 [M15, Epigallocatechin gallate]	1	Intestine	–
COc1cc2c(cc1OC)C(=O)C(CC1CCN(Cc3ccccc3)CC1)C2 (stereo not shown) [donepezil]	–	–	effect on scopolamine-induced impairment of correct alternations [2]: largely prevented
Methylgallic acid-O-sulphate [M06]	–	Urine	–
Gallic acid-O-sulphate [M02]	–	Plasmac	time of peak plasma level ([3]; mouse plasma, after PAC fraction 100 mg/kg p.o., peak area): 1 h
O=C1CCC(Cc2cc(O)cc(O)c2)O1 (stereo not shown) [M12, 5-(3‘,5‘-Dihydroxyphenyl)-γ-Valerolactone]	6	Intestine	–
COc1cc(O)cc2oc(-c3cc(O)c(O)c(O)c3)c(O)c(=O)c12 [M21, 5-O-Methylmyricetin]	6	Urine	–
O=C1CCC(Cc2cc(O)c(O)c(O)c2)O1 (stereo not shown) [M08, 5-(3',4',5'-trihydroxyphenyl)-gamma-Valerolactone]	6	Intestine	–
Oc1cc(O)c(CC(O)Cc2ccc(O)c(O)c2)c(O)c1 (stereo not shown) [M14, 1-(3′,4′-dihydroxyphenyl)-3-(2″,4″,6″-trihydroxyphenyl)propan-2-ol]	6	Intestine	–
Oc1cc(O)c2c(c1)O[C@H](c1cc(O)c(O)c(O)c1)[C@H](O)C2 [M10, Epigallocatechin]	–	Intestine	–
O=C(O)c1cc(O)c(O)c(O)c1 [M01, Gallic acid]	–	–	plasma level versus PAC dose ([3]; plasma of PAC-treated mice, approximately 1 h 15 min after administration): dose-dependent increase; Time points at which the metabolite was detected ([1]; rat, in vivo, po): 6 h
Oc1cc(O)c(CC(O)Cc2cc(O)c(O)c(O)c2)c(O)c1 (stereo not shown) [M09, 1-(3‘,4‘,5‘-trihydroxyphenyl)-3-(2‘‘,4‘‘,6‘‘-trihydroxyphenyl)propan-2-ol]	6	Intestine	–
Gallic acid glucuronide [M03]	–	Urine	–
O=C1CCC(Cc2ccc(O)c(O)c2)O1 (stereo not shown) [M13, 5-(3‘,4‘-Dihydroxyphenyl)-γ-Valerolactone]	6	Intestine	–
COc1cc(C(O)C(O)/C(=C\C(=O)O)c2ccccc2)cc(O)c1O (stereo not shown) [M17, (2Z)-5-(3,4-dihydroxy-5-methoxyphenyl)-4,5-dihydroxy-3-phenylpent-2-enoic acid]	6	Intestine	–
O=C(O)[C@H]1O[C@@H](Oc2c(-c3cc(O)c(O)c(O)c3)oc3cc(O)cc(O)c3c2=O)[C@H](O)[C@@H](O)[C@@H]1O [M18, Myricetin 3-O-glucuronide]	1	Intestine	–
COc1cc(-c2oc3cc(O)cc(O)c3c(=O)c2O[C@@H]2O[C@H](C(=O)O)[C@@H](O)[C@H](O)[C@H]2O)cc(O)c1O [M19, 5'-O-methyl Myricetin 3-O-glucuronide]	1	Intestine	–
COc1cc(C=O)ccc1O[C@@H]1O[C@H](C(=O)O)[C@@H](O)[C@H](O)[C@H]1O [M07, Vanillin glucuronide]	–	Urine	–
Oc1cc(O)c2c(c1)OC(c1ccc(O)c(O)c1)C(O)C2 (stereo not shown) [M11, Catechin]	6	Intestine	–
Oc1cc(O)c2c(c1)O[C@H](c1cc(O)c(O)c(O)c1)[C@@H](O)C2 [M04, Gallocatechin]	–	Intestine	–
O=c1c(O)c(-c2cc(O)c(O)c(O)c2)oc2cc(O)cc(O)c12 [M20, Myricetin]	–	–	Compartment in which the metabolite was detected ([1]; rat, in vivo, po): Intestine; Time points at which the metabolite was detected ([1]; rat, in vivo, po): 1h, 6h
